As a reminder, the melting point is the temperature, or range, at which the solid turns liquid.

Counter-ions that a name gives are not always drawn. Like-named read-outs stand apart in the source and are kept apart here.

The test system of data set [1] is human TNF, human whole blood stimulated with LPS. In words: TNF inhibition: human whole blood assay. The format is cell-based. The conditions noted are these: for TNF Inhibition-Human Whole Blood Assay: Table 9, percentage, concentration not given. The method, then: TNF Inhibition: Human Whole Blood Assay
Human peripheral blood is obtained in heparinized tubes. A 190 μL aliquot of blood is placed in each well of a 96 well u-bottom plate. […] After one hour of incubation at 37° C., […] of lipopolysaccharide (Salmonella typhosa, Sigma) in phosphate buffered saline is added resulting in a final concentration of […]. After four to five hours of incubation at 37° C., the supernatants are harvested and assayed at 1:10 or 1:20 dilutions for human TNF using ELISA.
In vitro human whole blood assay data for measuring the ability of the compounds to inhibit TNF production in human whole blood stimulated with LPS are shown in the column identified as: • “Human Whole Blood IC50, μM or %Inhib@conc. (μM)”
(§1) In vitro p38 alpha kinase inhibitory data are shown in the column identified as “p38 alpha IC50 (μM)”. In vitro human whole blood assay data for measuring the ability of the compounds to inhibit TNF production in human whole blood stimulated with LPS are shown in the column identified as: “HWB IC50 (μM)”. In vivo assessment of the ability of the compounds to inhibit LPS-stimulated TNF-release in the rat is shown in the column identified as: “ratLPS/%Inh@dose(mg/kg)”, wherein the dose is in milligram per kilogram (mg/kg) administered by oral gavage, 4 hours before LPS challenge.

The subject of data set [2] is TNF-a, human peripheral blood mononuclear cells. In words: LPS stimulation of human PBMs, TNF-a by ELISA. The format is cell-based. The conditions noted are these: Table 5, LPS-stimulated human PBM cells, TNF cell assay. The method, then:
Method of Isolation of Human Peripheral Blood Mononuclear Cells:
Human whole blood was collected in Vacutainer tubes containing EDTA as an anticoagulant. A blood sample (7 ml) was carefully layered over 5 ml PMN Cell Isolation Medium (Robbins Scientific) in a 15 ml round bottom centrifuge tube. The sample was centrifuged at 450-500×g for 30-35 minutes in a swing out rotor at room temperature. After centrifugation, the top band of cells were removed and washed 3 times with PBS w/o calcium or magnesium. The cells were centrifuged at 400×g for 10 minutes at room temperature. The cells were resuspended in Macrophage Serum Free Medium (Gibco BRL) at a concentration of 2 million cells/ml.
LPS Stimulation of Human PBMs:
Compounds were dissolved in DMSO initially and diluted in TCM for a final concentration of 0.1% DMSO. LPS (Calbiochem, 20 ng/ml, final concentration) was then added at a volume of 0.010 ml. Cultures were incubated overnight at 37° C. Supernatants were then removed and tested by ELISA for TNF-a and IL1-b. Viability was analyzed using MTS. After 0.1 ml supernatant was collected, 0.020 ml MTS was added to remaining 0.1 ml cells.
On the technique in general: ELISA stands for enzyme-linked immunosorbent assay.

The target of the next data set is T1, human p38 kinase alpha (Homo sapiens, UniProt Q16539).
T1 construct: GST (N, cleaved yes); made in house; host or cells: E. coli DH10B
T1 sequence (Q16539 whole entry): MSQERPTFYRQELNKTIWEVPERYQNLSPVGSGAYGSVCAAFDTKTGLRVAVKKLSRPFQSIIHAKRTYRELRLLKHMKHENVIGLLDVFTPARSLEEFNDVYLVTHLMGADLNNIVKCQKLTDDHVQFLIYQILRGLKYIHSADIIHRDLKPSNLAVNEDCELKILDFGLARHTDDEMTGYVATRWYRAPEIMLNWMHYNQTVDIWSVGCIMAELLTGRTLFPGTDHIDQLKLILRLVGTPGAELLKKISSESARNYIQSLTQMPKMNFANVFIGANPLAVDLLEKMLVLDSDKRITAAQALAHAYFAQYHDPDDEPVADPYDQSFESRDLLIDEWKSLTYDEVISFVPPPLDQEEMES
As to the kind of experiment: p38 kinase in vitro assay, phosphorylation of biotinylated PHAS-I with 32P-ATP. The format is biochemical. The conditions noted are these: for P38 alpha kinase % inhib @ conc. (uM): @ 1.0 uM.

Data set [3] relates to TNF-α, U937 human histiocytic lymphoma cell line. As to the kind of experiment: LPS stimulation of TNF production by U937 cells. The format is cell-based. In short, it runs like this:
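U937 cells differentiated 24 h with 20 ng/ml PMA, rested 24-48 h, used at 2 million cells/ml. Compounds in 0.1% DMSO final; LPS (E. coli, 100 ng/ml final) stimulation for 4 h at 37° C. Released TNF-α measured by ELISA; IC50 (μM).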

In data set [4] the test system is TNF-α, rats challenged with LPS. As to the kind of experiment: Rat assay, LPS-stimulated TNF release. As to conditions: for inhibition in vivo at 3 mg/kg / Rat LPS Model % inhib @ dose @ predose time: 3 mpk oral gavage, −4 h before LPS challenge; for inhibition in vivo at 3 mg/kg: read-out: Rat LPS Model % inhib @ dose @ predose time. The format is in vivo. The method, then:
The efficacy of the novel compounds in blocking the production of TNF also was evaluated using a model based on rats challenged with LPS. Male Harlen Lewis rats [Sprague Dawley Co.] were used in this model. Each rat weighed approximately 300 g and was fasted overnight prior to testing. Compound administration was typically by oral gavage (although intraperitoneal, subcutaneous and intravenous administration were also used in a few instances) 1 to 24 hours prior to the LPS challenge. Rats were administered 30 μg/kg LPS [salmonella typhosa, Sigma Co.] intravenously via the tail vein. Blood was collected via heart puncture 1 hour after the LPS challenge. Serum samples were stored at −20° C. until quantitative analysis of TNF-α by Enzyme Linked-Immuno-Sorbent Assay (“ELISA”) [Biosource]. Additional details of the assay are set forth in Perretti, M., et al., Br. J. Pharmacol. (1993), 110, 868-874, which is incorporated by reference in this application.
In vivo assessment of the ability of the compounds to inhibit LPS-stimulated TNF release in the rat is shown in the column identified as: • “Rat LPS Model, % TNF inhib dose @ predose time” wherein in the dose is milligram per kilogram (mpk) administered by oral gavage and the predose time indicates the number of hours before LPS challenge when the compound is administered.
In vivo assessment of the ability of the compounds to inhibit LPS-stimulated TNF release in the rat is shown in the column identified as: • “Rat LPS Model % Inhibition@dose@predose time” wherein the dose is milligram per kilogram (mpk) administered by oral gavage and the predose time indicates the number of hours before LPS challenge when the compound is administered.
as §1

Data set [5] deals with TNF alpha, BALB/c mice injected with LPS. In words: Mouse model of LPS-induced TNF alpha production. The data set is classed as in vivo. As to conditions: 30 mpk oral gavage, −6 h before LPS challenge. On the procedure: Mouse Model of LPS-induced TNF Alpha Production:
TNF alpha was induced in 10-12 week old BALB/c female mice by tail vein injection with 100 ng lipopolysaccharide (from S. Typhosa) in 0.2 ml saline. One hour later mice were bled from the retroorbital sinus and TNF concentrations in serum from clotted blood were quantified by ELISA.
Efficacy was determined at each time point as percent inhibition of serum TNF levels relative to LPS injected mice that received vehicle only.
In vivo assessment of the ability of the compounds to inhibit LPS-stimulated TNP release in the mouse is shown in the column identified as: • “Mouse LPS Model, % TNF inhib @ dose @ predose time” wherein in the dose is milligram per kilogram (mpk) administered by oral gavage and the predose time indicates the number of hours before LPS challenge when the compound is administered.

[6] abbreviates: activated human p38 kinase alpha, PHAS-I substrate, 50 μM unlabeled ATP, read-out: p38 kinase IC50.
Where [7] appears, read: Table 5, LPS-stimulated U937 cells, TNF-α, read-out: U937 Cell Assay IC50.
[8] abbreviates: in vitro P38-alpha kinase inhibition, read-out: P38 alpha kinase IC50.
[9] abbreviates: in vitro P38-alpha kinase, read-out: P38 alpha kinase IC50.

For the molecule “5-[2-(1,1-DIMETHYL)AMINOETHYL]-4-(4-PYRIDYL)-3-(4-FLUOROPHENYL)PYRAZOLE [Example C-114]”, the IC50 in data set [1] (TNF production, human whole blood stimulated with LPS, read-out: Human Whole Blood IC50, μM or % Inhib @ conc. (μM): IC50) worked out at 1.73 µM.
With `Clc1ccc(-c2n[nH]c(SC3CCNCC3)c2-c2ccncc2)cc1` [A-459 (salt)], the IC50 in data set [1] (Table 10, read-out: TNF Inhibition-Human Whole Blood Assay) was determined as 0.28 µM.
With `Cc1[nH]nc(-c2ccc(Cl)cc2)c1-c1ccncc1` [Example 7, 4-(3-(4-chlorophenyl)-5-methyl-1H-pyrazol-4-yl)pyridine], in data set [2] (PBMC), the IC50 was found to be 200 nM.
For the molecule `CCc1[nH]nc(-c2cccc(C)c2)c1-c1ccncc1` [Example 45], in data set [2] (PBMC), the IC50 was less than 100 nM.
In the case of `CCCc1[nH]nc(-c2cccc(C)c2)c1-c1ccncc1` [Example A-26], the IC50 was less than 100 nM in data set [2], 700 nM at human p38 kinase alpha (setting [6]) and 29 nM in data set [3] (setting [7]).
The corresponding values for `CCc1[nH]nc(-c2ccccc2)c1-c1ccncc1` [Example A-43] are less than 100 nM, less than 100 nM and 243 nM.
In data set [2], `Cc1[nH]nc(-c2ccsc2)c1-c1ccncc1` [Example A-49] displayed an IC50 of 6800 nM.
`CCn1nc(C)c(-c2ccncc2)c1-c1ccc(Cl)cc1` [Example A-207, 4-[3-(4-chlorophenyl)-2-ethyl-5-methyl-1H-pyrazol-4-yl]pyridine]: the melting point is 153.46 °C.
Still for that read-out and setting: the same measure for `Clc1ccc(-c2n[nH]cc2-c2ccncn2)cc1` [Example A-310, 4-[3-(4-chlorophenyl)-1H-pyrazol-4-yl]pyrimidine]: 218.17 °C.
`COc1ccc(-n2nc(-c3ccc(F)cc3)c(-c3ccncc3)c2-c2cnc[nH]2)cc1` [Example A-323, 4-[3-(4-fluorophenyl)-5-(1H-imidazol-4-yl)-1-(4-methoxyphenyl)-1H-pyrazol-4-yl]pyridine] had a melting point of 124 to 126 °C. Further, the inhibition in vivo at 30 mg/kg in data set [4] (Rattus norvegicus, po, read-out: Rat LPS Assay % Inhibition, Table 8, dose 30.0 mg/kg) turned out to be 40%.
On to `Fc1ccc(-c2n[nH]cc2-c2ccnc(NCCN3CCCCC3)c2)cc1` [Example A-375, 4-[3-(4-fluorophenyl)-1H-pyrazol-4-yl]-N-[2-(1-piperidinyl)ethyl]-2-pyridinamine], for which the “TNF Inhibition-Human Whole Blood Assay” value in data set [1] is on record as 28%.
For the molecule `O=C1CCN(c2[nH]nc(-c3ccc(F)cc3)c2-c2ccncc2)CC1` [Example A-378, 1-[5-(4-fluorophenyl)-4-(4-pyridinyl)-1H-pyrazol-3-yl]-4-piperidinone], in data set [1], the “TNF Inhibition-Human Whole Blood Assay” value is reported as 49%.
Same read-out and setting: under `OC1CCN(c2[nH]nc(-c3ccc(F)cc3)c2-c2ccncc2)CC1` [Example A-379, 1-[5-(4-fluorophenyl)-4-(4-pyridinyl)-1H-pyrazol-3-yl]-4-piperidinol] stands 44%; under `Fc1ccc(-c2n[nH]c(N3CCC4(CC3)OCCO4)c2-c2ccncc2)cc1` [Example A-380, 8-[5-(4-fluorophenyl)-4-(4-pyridinyl)-1H-pyrazol-3-yl]-1,4-dioxa-8-azaspiro[4.5]decane], 32%.
The molecule `O=C(C(=C1SCS1)c1ccncc1)c1ccc(OC(F)(F)F)cc1` [Example A-395] registered a melting point of 182.6 to 183 °C.
Regarding `N#Cc1ccc(C(=O)C(=C2SCS2)c2ccncc2)cc1` [Example A-396], the melting point lay within 193.3 to 193.4 °C.
On the same count and under the same terms, under `Clc1ccc(-c2n[nH]c(SCCN3CCCC3)c2-c2ccncc2)cc1` [Example A-460] stands 189.9 to 190.1 °C; under `O=C(O)C(Cc1cnc[nH]1)Sc1[nH]nc(-c2ccc(Cl)cc2)c1-c1ccncc1` (centres unmarked) [Example A-471], 163 to 165 °C.
With `Clc1ccc(-c2n[nH]c(SCCOC3CCCCO3)c2-c2ccncc2)cc1` (centres unmarked) [Example A-474], the IC50 in data set [1] (Homo sapiens, Table 10, read-out: TNF Inhibition-Human Whole Blood Assay) worked out at 1.47 µM.
On to `CC(NS(=O)(=O)c1cccc(Cl)c1)c1[nH]nc(-c2ccc(F)cc2)c1-c1ccncc1` (centres unmarked) [Example B-0639], for which the IC50 on human p38 kinase alpha (setting [8]) is 51 nM. Moreover, in data set [4] (Rattus norvegicus, po), the inhibition in vivo at 3 mg/kg was determined as 50%.
Consider `CC(NS(=O)(=O)c1ccc(Cl)s1)c1[nH]nc(-c2ccc(F)cc2)c1-c1ccncc1` (centres unmarked) [Example B-0650], for which the IC50 at human p38 kinase alpha (setting [8]) was determined as 6 nM. The inhibition in vivo at 3 mg/kg in data set [4] (Rattus norvegicus, po) was 8%.
In the case of `O=C(NCCCc1[nH]nc(-c2ccc(F)cc2)c1-c1ccncc1)c1ccc(F)cc1` [Example B-1161], at human p38 kinase alpha, the “P38 alpha kinase % inhib @ conc. (uM)” value came to 64.0% 2. Moreover, the “Mouse LPS Model % TNF inhib @ dose @ predose time” value in data set [5] was 40% @ 30 mpk @ −6 h. In data set [4], the “Rat LPS Model % inhib @ dose @ predose time” value is 45% @ 3 mpk @ −4 h.
`O=C(NCCCc1[nH]nc(-c2ccc(F)cc2)c1-c1ccncc1)C1CC1` [Example B-1166]: the “P38 alpha kinase % inhib @ conc. (uM)” value on human p38 kinase alpha stood at 77.0% @. For the same molecule, in data set [5], the “Mouse LPS Model % TNF inhib @ dose @ predose time” value is 50% @ 30 mpk @ −6 h. The “Rat LPS Model % inhib @ dose @ predose time” value in data set [4] is 50% @ 3 mpk @ −4 h.
`CC(=O)N1CCC(c2[nH]nc(-c3ccc(F)cc3)c2-c2ccncc2)CC1` [Example B-1363]: the IC50 on human p38 kinase alpha (setting [9]) came to 9 nM. Also, in data set [5], the “Mouse LPS Model % TNF inhib @ dose @ predose time” value was found to be 51.0% @ 30 pmk @. The “Rat LPS Model % inhib @ dose @ predose time” value in data set [4] is recorded as 53% @ 3 mpk @ −4 h.
`O=C(C1CC1)N1CCC(c2[nH]nc(-c3ccc(F)cc3)c2-c2ccncc2)CC1` [Example B-1364]: the IC50 on human p38 kinase alpha (setting [9]) stood at 9 nM; in data set [3] (Homo sapiens, U-937, TNF production, human U937 cells stimulated with LPS, read-out: U937 Cell IC50), 270 nM. In addition, in data set [5] (Mus musculus, read-out: Mouse LPS Model % TNF inhib @ dose @ predose time), the inhibition in vivo at 30 mg/kg is 53%. For the same molecule, in data set [4] (Rattus norvegicus, po), the inhibition in vivo at 3 mg/kg came to 17%.

Source of the values: patent US6979686B1, “Substituted pyrazoles as p38 kinase inhibitors” (Pharmacia Corporation, priority 2001, dated 2005).
